ChEMBL document CHEMBL1132036, “Inhibition of E. coli growth by fullerene derivatives and inhibition mechanism” (Bioorg Med Chem Lett, 1999)

Assays:
Escherichia coli [1] = experiment: Compound was tested for inhibition of Escherichia coli dioxgen consumption.; type: functional
Escherichia coli [2] = experiment: Compound was tested for inhibition of Escherichia coli growth; type: functional, organism-based

Compound	Dioxygen uptake rate (Escherichia coli [1]) [µM/min]	IC50 (Escherichia coli [2]) [µM]
C[N+]12CCN(CC1)C13c4c5c6c7c8c4c4c1c1c9c%10c%11c%12c(c5c5c6c6c%13c%14c%15c%16c%17c%18c%19c%20c%21c%22c%23c%24c%25c(c-%16c(c8c%25c4c%24c1c%22c9c1c%21c4c%19c(c%18%14)c8c%13c5c%12c8c4c%111)C7C%156)C%17C%23%20)C%1032 (stereo not given)	13.7	–
O=C(O)C1(C(=O)O)C23c4c5c6c7c8c9c%10c%11c%12c%13c%14c(c-5c5c%15c%16c(c%17c%18c2c2c4c7c4c8c7c%10c8c%10c%11c%11c%13c(c%14%15)c%13c%16c%14c%17c%15c%18c%16c2c4c2c7c8c4c(c%162)c%15c2c%14c%13c%11c%10c24)C513)C61C(C(=O)O)(C(=O)O)C9%121 (stereo not given)	42.2	100
C[N+]1(C)CC23c4c5c6c7c8c4c4c2c2c9c%10c%11c%12c(c5c5c6c6c%13c%14c%15c%16c%17c%18c%19c%20c%21c%22c%23c%24c%25c(c-%16c(c8c%25c4c%24c2c%22c9c2c%21c4c%19c(c%18%14)c8c%13c5c%12c8c4c%112)C7C%156)C%17C%23%20)C%103C1.C[N+]1(C)CC23c4c5c6c7c8c4c4c2c2c9c%10c%11c%12c(c5c5c6c6c%13c%14c%15c%16c%17c%18c%19c%20c%21c%22c%23c%24c%25c(c-%16c(c8c%25c4c%24c2c%22c9c2c%21c4c%19c(c%18%14)c8c%13c5c%12c8c4c%112)C7C%156)C%17C%23%20)C%103C1.[I-].[I-] (stereo not given)	4.1	5
